Consider 31 compounds from patent publication US5665745A, “Heterocyclic compounds and their preparation and use” (Eli Lilly and Company, priority 1995, dated 1997).

Where two headings read alike, the source gives them in different places.

The target in assay [1] is muscarinic acetylcholine receptors. Kind of assay: inhibition of specific binding of ^3 H-Oxotremorine-M (^3 H-Oxo). Set-up: species or system rat (male Wistar. The note with it: ^3 H-Oxotremorine 1.0 nM, rat cortex, 30 min. at 25° C. Summed up:
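Rat cortex membranes (male Wistar) in 20 mM Hepes pH 7.4 incubated with 1.0 nM ^3H-Oxotremorine-M (final) and test compound for 30 min at 25 °C; arecoline defines non-specific binding. Bound radioactivity by filtration and scintillation counting; IC50 (nM) from a single concentration via Co/Cx mass-action formula, reflecting high- and medium-affinity sites.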

Assay [2] deals with T1, muscarinic receptors (M1 -site, pirenzepine sensitive site) (Rattus norvegicus, UniProt P08482).
T1 construct: from tissue; host or cells: cerebral cortex membranes of male Wistar rats
T1 sequence (P08482 1-460): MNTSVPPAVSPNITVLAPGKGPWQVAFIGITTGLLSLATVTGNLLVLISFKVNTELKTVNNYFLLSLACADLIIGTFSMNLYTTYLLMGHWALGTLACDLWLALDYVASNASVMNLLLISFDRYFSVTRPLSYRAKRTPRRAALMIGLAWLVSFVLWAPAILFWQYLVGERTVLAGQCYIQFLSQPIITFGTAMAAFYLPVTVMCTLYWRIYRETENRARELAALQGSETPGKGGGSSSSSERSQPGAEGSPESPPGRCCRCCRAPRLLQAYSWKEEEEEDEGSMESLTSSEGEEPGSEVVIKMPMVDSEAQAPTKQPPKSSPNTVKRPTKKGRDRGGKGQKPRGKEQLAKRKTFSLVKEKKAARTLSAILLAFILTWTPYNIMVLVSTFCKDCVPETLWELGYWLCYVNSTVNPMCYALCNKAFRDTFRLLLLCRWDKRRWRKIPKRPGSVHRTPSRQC
Kind of assay: inhibition of ^3 HPRZ (pirenzepine, [N-methyl-^3 H]) binding to rat cerebral cortex membranes. Also noted: species or system rat (male Wistar. Summed up: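 Male Wistar rat cortex membranes in 20 mM Hepes pH 7.4 were incubated with 1.0 nM (final) [3H]pirenzepine for 60 min at 20° C; nonspecific binding was defined with 1 μg/mL atropine. Filtration and scintillation counting were used, and IC50 was calculated from a single concentration assuming mass-action kinetics.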

Setting [3] is: ^3 HPRZ 1.0 nM, rat cortex, 60 min. at 20° C., read-out: ^3 HPRZ IC50 (head from b208 on: Pir IC-50).

In the case of `CC(C)=CCOc1nsnc1O[C@@H]1CN2CCC[C@H]1C2` (relative stereo) [Compound 201, (±)-endo-3-(3-Methyl-2-butenyloxy)-4-(1-azabicyclo[3.2.1]octyl-6-oxy)-1,2,5-thiadiazole], the IC50 is 3.7 nM in assay [1] and 3.1 nM in assay [2] (setting [3]).

On to `FCCCOc1nsnc1O[C@@H]1CN2CCC[C@H]1C2` (relative stereo) [Compound 205, (±)-endo-3-(3-Fluoropropoxy)-4-(1-azabicyclo[3.2.1]octyl-6-oxy)-1,2,5-thiadiazole], for which the IC50 in assay [1] amounted to 2.5 nM; in assay [2] (setting [3]), 3 nM.

Turning to `CC(C)(C)CCSc1nsnc1OC1CN2CCC1CC2` (racemic) [Compound 18, (±)-3-(3,3-Dimethylbutylthio)-4-(1-azabicyclo[2.2.2]-octyl-3-oxy)-1,2,5-thiadiazole], the results for the IC50 in assay [1] and in assay [2] were 101 nM and 73 nM, respectively.

As for `CCCCCSc1nsnc1O[C@H]1CN2CCC1CC2` [Compound 38, (R)-3-Pentylthio-4-(1-azabicyclo[2.2.2]octyl-3-oxy)-1,2,5-thiadiazole], the IC50 in assay [1] was found to be 1 nM; in assay [2], 1.9 nM.

With `CCCCc1ccc(COc2nsnc2O[C@@H]2CN3CCC[C@H]2C3)cc1` (relative stereo) [Compound 192, (±)-endo-3-(4-n-Butylbenzyloxy)-4-(1-azabicyclo[3.2.1]octyl-6-oxy)-1,2,5-thiadiazole], the half-maximal inhibitory concentration (IC50) in assay [1] came to 13 nM; in assay [2] (setting [3]), 21 nM.

As for `CCCCCCc1nsnc1OC1CN2CCC1CC2` (racemic) [Compound 101, (±)-3-Hexyl-4-(1-azabicyclo[2.2.2]octyl-3-oxy)-1,2,5-thiadiazole], the IC50 in assay [1] turned out to be 88 nM; in assay [2], 36 nM.

On to `C/C=C/COc1nsnc1OC1CN2CCC1CC2` (mixture of isomers) [Compound 109, (±)-3-(trans-2-butenyloxy)-4-(1-azabicyclo[2.2.2]octyl-3-oxy)-1,2,5-thiadiazole], for which the half-maximal inhibitory concentration (IC50) in assay [1] is 12.3 nM; in assay [2], 58.3 nM.

For the compound `c1ccc2cc(CCOc3nsnc3O[C@@H]3CN4CCC[C@H]3C4)ccc2c1` (relative stereo) [Compound 178, (±)-endo-3-[2-(2-Napthyl)ethoxy]-4-(1-azabicyclo[3.2.1]octyl-6-oxy)-1,2,5-thiadiazole], the IC50 was determined as 15 nM in assay [1] and 61 nM in assay [2] (setting [3]).

`CCCCSc1nsnc1OCCN(CC)CC` [Compound 34, 3-Butylthio-4-(2-(diethylamino)ethoxy)-1,2,5-thiadiazole]: the IC50 turned out to be 86 nM in assay [1] and 10 nM in assay [2] (setting [3]).

On to `Fc1ccc(OCCOc2nsnc2OC2CN3CCC2CC3)cc1` (racemic) [Compound 121, (±)-3-(2-[4-Fluorophenoxy]ethoxy)-4-(1-azabicyclo[2.2.2]octyl-3-oxy)-1,2,5-thiadiazole], for which the half-inhibitory concentration (IC50) in assay [1] is 12 nM; in assay [2] (setting [3]), 146 nM.

As for `CC#CCOc1nsnc1O[C@@H]1CN2CCC[C@H]1C2` (relative stereo) [Compound 168], the IC50 stood at 1 nM in assay [1] and 6.4 nM in assay [2] (setting [3]).

`Fc1ccc(COc2nsnc2O[C@@H]2CN3CCC[C@H]2C3)c(F)c1` (relative stereo) [Compound 195, (±)-endo-3-(2,4-Difluorobenzyloxy)-4-(1-azabicyclo[3.2.1]octyl-6-oxy)-1,2,5-thiadiazole]: the half-maximal inhibitory concentration (IC50) in assay [1] was 4.9 nM; in assay [2] (setting [3]) it was 7.5 nM.

For `CCCCSc1nsnc1OC1CN2CCC1CC2` (racemic) [Compound 14, (±)-3-Butylthio-4-(1-azabicyclo[2.2.2]octyl-3-oxy)-1,2,5-thiadiazole], the 50% inhibitory concentration (IC50) was 1.3 nM in assay [1] and 1.9 nM in assay [2].

As to `CCCCSc1nsnc1O[C@H]1CN2CCC[C@@H]1C2` [Compound 138, (5R,6R)-endo-3-Butylthio-4-(1-azabicyclo[3.2.1]octyl-6-oxy)-1,2,5-thiadiazole], the IC50 came to 0.65 nM in assay [1] and 0.47 nM in assay [2] (setting [3]).

Regarding `CSCCOc1nsnc1OC1CN2CCC1CC2` (racemic) [Compound 115, (±)-3-(2-(Methylthio)ethoxy)-4-(1-azabicyclo[2.2.2]octyl-3-oxy)-1,2,5-thiadiazole], the values for the IC50 in assay [1] and in assay [2] (setting [3]) were 19 nM and 532 nM, respectively.

Take `C#CCCOc1nsnc1OC1CN2CCC1CC2` (racemic) [Compound 113, (±)-3-(3-butynoxy)-4-(1-azabicyclo[2.2.2]octyl-3-oxy)-1,2,5-thiadiazole]: the concentration for half-maximal inhibition (IC50) in assay [1] came out at 3.6 nM; in assay [2] it was 23 nM.

For the compound `CCCCSc1nsnc1OC1CCN(C)CC1` [Compound 30, 3-Butylthio-4-(1-methyl-4-piperidyloxy)-1,2,5-thiadiazole], the IC50 in assay [1] was determined as 69 nM; in assay [2] (setting [3]), 19 nM.

As to `C=CCCCOc1nsnc1OC1CN2CCC1CC2` (racemic) [Compound 122, (±)-3-(4-pentenyloxy)-4-(1-azabicyclo[2.2.2]octyl-3-oxy)-1,2,5-thiadiazole], the figures for the IC50 in assay [1] and in assay [2] were 11 nM and 45 nM, respectively.

As to `c1ccc(OCCSc2nsnc2O[C@@H]2CN3CCC[C@H]2C3)cc1` (relative stereo) [Compound 156, (±)-endo-3-(2-Phenoxyethylthio)-4-(1-azabicyclo[3.2.1]octyl-6-oxy)-1,2,5-thiadiazole], the 50% inhibitory concentration (IC50) came out at 1 nM in assay [1] and 0.6 nM in assay [2] (setting [3]).

As for `CCCCCCSc1nsnc1OC1CN2CCC1CC2` (racemic) [Compound 17, (±)-3-Hexylthio-4-(1-azabicyclo[2.2.2]octyl-3-oxy)-1,2,5-thiadiazole], the IC50 in assay [1] amounted to 5.2 nM; in assay [2] it was 8.8 nM.

`c1csc(CCCOc2nsnc2O[C@@H]2CN3CCC[C@H]2C3)c1` (relative stereo) [Compound 206, (±)-endo-3-[3-(2-Thienyl)propoxy]-4-(1-azabicyclo[3.2.1]octyl-6-oxy)-1,2,5-thiadiazole]: the IC50 in assay [1] was 6.1 nM; in assay [2] (setting [3]), 5 nM.

Regarding `C/C=C\COc1nsnc1O[C@@H]1CN2CCC[C@H]1C2` (relative stereo) [Compound 181, (±)-endo-3-(cis-2-Butenyloxy)-4-(1-azabicyclo[3.2.1]octyl-6-oxy)-1,2,5-thiadiazole], the half-maximal inhibitory concentration (IC50) in assay [1] worked out at 1.1 nM; in assay [2] (setting [3]), 2.2 nM.

As for `Clc1nsnc1OC1CN2CCC1CC2` (racemic) [Compound 12, (±)-3-Chloro-4-(1-azabicyclo[2.2.2]octyl-3-oxy)-1,2,5-thiadiazole], the half-inhibitory concentration (IC50) in assay [1] is 73 nM; in assay [2], 86 nM.

Consider `c1nsnc1OC1CN2CCC1CC2` (racemic) [Compound 100, (±)-3-(1-azabicyclo[2.2.2]octyl-3-oxy)-1,2,5-thiadiazole], for which the IC50 in assay [1] is 873 nM; in assay [2] (setting [3]), 846 nM.

For the compound `COCCOc1nsnc1O[C@@H]1CN2CCC[C@H]1C2` (relative stereo) [Compound 183, (±)-endo-3-(2-Methoxyethoxy)-4-(1-azabicyclo[3.2.1]octyl-6-oxy)-1,2,5-thiadiazole], the IC50 in assay [1] is 2.6 nM; in assay [2] (setting [3]), 9.9 nM.

On to `CCCCCCOc1nsnc1O[C@@H]1CN2CCC[C@H]1C2` (relative stereo) [Compound 136, (±)-endo-3-Hexyloxy-4-(1-azabicyclo[3.2.1]octyl-6-oxy)-1,2,5-thiadiazole], for which the results for the half-maximal inhibitory concentration (IC50) in assay [1] and in assay [2] (setting [3]) were 2.73 nM and 6.42 nM, respectively.

`c1ccc(OCCOc2nsnc2O[C@@H]2CN3CCC[C@H]2C3)cc1` (relative stereo) [Compound 191, (±)-endo-3-(2-Phenoxyethoxy)-4-(1-azabicyclo[3.2.1]octyl-6-oxy)-1,2,5-thiadiazole]: the IC50 turned out to be 1.4 nM in assay [1] and 9.5 nM in assay [2] (setting [3]).

With `CCCSc1nsnc1OC1CN2CCC1CC2` (racemic) [Compound 13, (±)-3-Propylthio-4-(1-azabicyclo[2.2.2]octyl-3-oxy)-1,2,5-thiadiazole], the half-maximal inhibitory concentration (IC50) in assay [1] amounted to 1.4 nM; in assay [2] it was 3.7 nM.

On to `CCCCOc1nsnc1OC1CCCNC1` (racemic) [Compound 134, (±)-3-Butyloxy-4-(3-piperidinyloxy)-1,2,5-thiadiazole], for which the IC50 was found to be 55 nM in assay [1] and 227 nM in assay [2] (setting [3]).

In the case of `CC(C)(C)c1ccc(COc2nsnc2O[C@@H]2CN3CCC[C@H]2C3)cc1` (relative stereo) [Compound 198, (±)-endo-3-(4-tert-Butylbenzyloxy)-4-(1-azabicyclo[3.2.1]octyl-6-oxy)-1,2,5-thiadiazole], the 50% inhibitory concentration (IC50) in assay [1] was determined as 31 nM; in assay [2] (setting [3]), 120 nM.

Turning to `FC(F)(F)c1cccc(CCOc2nsnc2O[C@@H]2CN3CCC[C@H]2C3)c1` (relative stereo) [Compound 188, (±)-endo-3-[2-(3-Trifluoromethylphenyl)ethoxy]-4-(1-azabicyclo[3.2.1]octyl-6-oxy)-1,2,5-thiadiazole], the IC50 in assay [1] was found to be 12 nM; in assay [2] (setting [3]), 43 nM.

By IC50 is commonly meant the concentration needed to halve the response being measured.
